The test has as its system human coronavirus (229E). Format: cell-based.

6 molecules from PMC7127349 (Bioorganic & Medicinal Chemistry Letters, 2018) can be followed below.

For the molecule `CCOC(=O)C1(Cc2ccccc2)CN(c2ccccc2)Cc2nnn(Cc3ccc(F)cc3)c21` (stereo not drawn) [Compound 14d], the “activity against human coronavirus (229E) lower than the activity observed with UDA” value was “approximately 50 fold”. For `CCOC(=O)C1(Cc2ccccc2)CN(c2ccccc2)Cc2nnn(CCc3cc4ccccc4[nH]3)c21` (stereo not drawn) [Compound 14n], the “activity against human coronavirus (229E) lower than the activity observed with UDA” value is recorded as “approximately 50 fold”. Still for that read-out and setting: the result for `CCOC(=O)C1(Cc2ccc(F)cc2)CN(c2ccccc2)Cc2nnn(Cc3ccc(Cl)c(Cl)c3)c21` (stereo not drawn) [Compound 14q] reads “approximately 50 fold”; that for `COc1ccc(CCn2nnc3c2CCN(c2ccc(C(F)(F)F)cc2)C3)cc1` [Compound 18f], “approximately 50 fold”. For the molecule `Fc1cccc(Cn2nnc3c2CCN(c2ccc(C(F)(F)F)cc2)C3)c1` [Compound 18i], the “activity against human coronavirus (229E) lower than the activity observed with UDA” value is reported as “approximately 50 fold”.

B1: Urtica dioica agglutinin (protein, UniProt P11218 24-372, looked up)
Lectin/endochitinase 1: QRCGSQGGGGTCPALWCCSIWGWCGDSEPYCGRTCENKCWSGERSDHRCGAAVGNPPCGQDRCCSVHGWCGGGNDYCSGSKCQYRCSSSVRGPRVALSGNSTANSIGNVVVTEPLFDQMFSHRKDCPSQGFYSYHSFLVAAESFPAFGTIGDVATRKREVAAFLAHISQATSGERSDVENPHAWGLCHINTTTVTENDFCTSSDWPCAAGKKYSPRGPIQLTHNFNYGLAGQAIGEDLIQNPDLVEKDPIISFKTALWFWMSQHDNKPSCHDIVLNANSAANRIPNKGVIGNIISRAFGHDDFAVRSSSIGFYKRYCDMLGVSYGHDLKYWFDNTPSSEFQRIQMRVAA
As for B1, the half-maximal effective concentration (EC50) (read-out: EC50 Human Coronavirus (229E)) was 200 nM.

As a reminder, the EC50 is the concentration at which the effect is half-maximal.
